Measurements reported in ChEMBL document CHEMBL6092160, “Discovery of novel third generation P-glycoprotein inhibitors bearing an azo moiety with MDR-reversing effect” (Eur J Med Chem, 2024).
Counter-ions that a name gives are not always drawn.

How the values were obtained:
[1] = tested on: K562/A02; assay: Cytotoxicity against human K562/A02 cells over expressing P-gp at 20 uM incubated for 72 hrs by CCK-8 assay; assay type: toxicity, cell-based; conditions: k562/a02, 72 h
[2] = tested on: K562/A02; assay: Effect on P-glycoprotein expression at mRNA level in human K562/A02 cells at 0.5 to 8.0 uM by q-PCR analysis; assay type: functional, cell-based; conditions: dose 0.5-8 µM
[3] = target: T1, ATP-dependent translocase ABCB1 (Homo sapiens, UniProt P08183); assay: Inhibition of P-glycoprotein in human K562/A02 cells assessed as accumulation of rhodamine incubated for 4 hrs by flow cytometric analysis; assay type: cell-based; conditions: k562/a02, 4 h, at 0.5 to 8 µM, dose 0.5-8 µM
T1 sequence (P08183 whole entry): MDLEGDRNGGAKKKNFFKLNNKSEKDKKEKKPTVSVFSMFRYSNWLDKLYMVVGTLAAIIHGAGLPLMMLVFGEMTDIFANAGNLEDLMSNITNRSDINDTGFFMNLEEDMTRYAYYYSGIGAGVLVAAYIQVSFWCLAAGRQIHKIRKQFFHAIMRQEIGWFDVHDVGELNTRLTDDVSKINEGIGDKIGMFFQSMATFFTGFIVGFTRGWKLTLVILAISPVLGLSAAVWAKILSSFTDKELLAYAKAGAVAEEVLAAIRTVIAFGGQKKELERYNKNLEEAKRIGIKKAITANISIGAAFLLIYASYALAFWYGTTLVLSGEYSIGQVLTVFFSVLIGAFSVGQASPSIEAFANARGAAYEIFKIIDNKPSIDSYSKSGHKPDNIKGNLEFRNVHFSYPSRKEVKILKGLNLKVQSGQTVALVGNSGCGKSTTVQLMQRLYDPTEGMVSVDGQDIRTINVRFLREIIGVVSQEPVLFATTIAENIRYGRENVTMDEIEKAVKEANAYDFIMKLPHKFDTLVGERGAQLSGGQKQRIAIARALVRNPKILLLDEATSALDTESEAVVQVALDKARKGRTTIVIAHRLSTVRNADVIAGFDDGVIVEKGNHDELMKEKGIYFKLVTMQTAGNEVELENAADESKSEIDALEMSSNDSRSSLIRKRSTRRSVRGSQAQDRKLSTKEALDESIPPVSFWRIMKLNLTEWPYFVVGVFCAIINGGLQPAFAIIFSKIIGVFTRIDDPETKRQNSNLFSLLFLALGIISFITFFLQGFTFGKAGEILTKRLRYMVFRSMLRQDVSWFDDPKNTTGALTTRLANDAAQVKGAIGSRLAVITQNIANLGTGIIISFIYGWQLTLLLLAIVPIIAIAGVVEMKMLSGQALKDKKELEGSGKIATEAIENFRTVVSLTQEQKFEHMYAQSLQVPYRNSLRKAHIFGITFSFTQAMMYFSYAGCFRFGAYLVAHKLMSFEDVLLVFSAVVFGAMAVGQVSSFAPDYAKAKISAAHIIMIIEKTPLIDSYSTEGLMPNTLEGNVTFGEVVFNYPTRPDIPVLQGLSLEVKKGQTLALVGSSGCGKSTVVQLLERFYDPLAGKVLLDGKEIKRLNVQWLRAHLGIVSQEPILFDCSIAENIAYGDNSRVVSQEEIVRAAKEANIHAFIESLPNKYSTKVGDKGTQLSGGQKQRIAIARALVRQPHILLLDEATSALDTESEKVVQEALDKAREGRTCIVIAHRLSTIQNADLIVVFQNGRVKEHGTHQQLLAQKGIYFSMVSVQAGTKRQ

[4] = tested on: K562/A02; assay: Reversal of multi-drug resistance in human K562/A02 cells assessed as decrease in adriamycin IC50 preincubated with compound followed by ADR addition for 48 hrs; assay type: functional, cell-based
[5] = tested on: K562/A02; assay: Effect on P-glycoprotein expression at protein level in human K562/A02 cells at 0.5 to 8.0 uM incubated for 24 hrs by Western blot analysis; assay type: functional, cell-based; conditions: dose 0.5-8 µM
[6] = target: T1, ATP-dependent translocase ABCB1; assay: Induction of thermal stabilization of P-glycoprotein in human K562/A02 cells at 50 uM under 25 to 61 degreeC incubated for 1 hrs by CETSA based Western blot analysis; assay type: cell-based; conditions: k562/a02, 1 h
[7] = tested on: K562/A02; assay: Antiproliferative activity against human K562/A02 cells assessed as reduction in cell viability incubated for 72 hrs by CCK-8 assay; assay type: functional, cell-based; conditions: K562/A02, 72 h

Compound	Activity [1]	also measured
COc1ccc(C(=O)Nc2ccccc2/N=N/c2ccc(CCN3CCc4cc(OC)c(OC)cc4C3)cc2)cc1OC	Non-toxic	–
COc1ccc(C(=O)Nc2ccccc2/N=N/c2ccc(CCN3CCc4cc(OC)c(OC)cc4C3)cc2)cc1	Non-toxic	–
COc1cc2c(cc1OC)CN(CCc1ccc(/N=N/c3ccccc3NC(=O)c3ccc(F)c(F)c3)cc1)CC2	Non-toxic	–
COc1cc2c(cc1OC)CN(CCc1ccc(/N=N/c3ccccc3NC(=O)c3ccc(Cl)c(Cl)c3)cc1)CC2	Non-toxic	–
COc1cc2c(cc1OC)CN(CCc1ccc(/N=N/c3ccccc3NC(=O)c3ccccc3OC)cc1)CC2	Non-toxic	Activity [2]: Active; Little Effect Of Compound Observed; inhibition (INH) [3]: Dose-dependent-effect; EC50 [4]: 120 nM; Activity [5]: Active; Little Effect Of Compound Observed; Activity [6]: Active
COc1cc2c(cc1OC)CN(CCc1ccc(/N=N/c3ccccc3NC(=O)c3cccc([N+](=O)[O-])c3)cc1)CC2	Non-toxic	–
COc1cc2c(cc1OC)CN(CCc1ccc(/N=N/c3ccccc3NC(=O)c3ccc(C)cc3)cc1)CC2	Non-toxic	–
COc1cc2c(cc1OC)CN(CCc1ccc(NC(=O)c3ccccc3/N=N/c3ccc(Cl)cc3)cc1)CC2	Non-toxic	–
COc1cc2c(cc1OC)CN(CCc1ccc(NC(=O)c3ccccc3/N=N/c3cccc(Cl)c3)cc1)CC2	Non-toxic	–
COc1cccc2c1C(=O)c1c(O)c3c(c(O)c1C2=O)C[C@@](O)(C(=O)CO)C[C@@H]3O[C@H]1C[C@H](N)[C@H](O)[C@H](C)O1 [DOXORUBICIN HYDROCHLORIDE]	–	IC50 [7]: 2160 nM
COc1cc2c(cc1OC)CN(CCc1ccc(/N=N/c3ccccc3NC(=O)c3ccccc3[N+](=O)[O-])cc1)CC2	Non-toxic	–
COc1ccccc1/N=N/c1ccccc1C(=O)Nc1ccc(CCN2CCc3cc(OC)c(OC)cc3C2)cc1	Non-toxic	–
COc1cc2c(cc1OC)CN(CCc1ccc(/N=N/c3ccccc3NC(=O)c3cc(OC)c(OC)c(OC)c3)cc1)CC2	Non-toxic	–
COc1cc2c(cc1OC)CN(CCc1ccc(/N=N/c3ccccc3NC(=O)c3ccccc3)cc1)CC2	Non-toxic	–
COc1cccc(C(=O)Nc2ccccc2/N=N/c2ccc(CCN3CCc4cc(OC)c(OC)cc4C3)cc2)c1	Non-toxic	–
COc1cc2c(cc1OC)CN(CCc1ccc(/N=N/c3ccccc3NC(=O)c3ccccc3Cl)cc1)CC2	Non-toxic	–
COc1cc2c(cc1OC)CN(CCc1ccc(NC(=O)c3ccccc3/N=N/c3ccc(C)cc3)cc1)CC2	Non-toxic	–
COc1cc2c(cc1OC)CN(CCc1ccc(/N=N/c3ccccc3NC(=O)c3ccc(Cl)cc3)cc1)CC2	Non-toxic	–
COc1ccc(C(=O)Nc2ccccc2C(=O)Nc2ccc(CCN3CCc4cc(OC)c(OC)cc4C3)cc2)cc1OC	–	EC50 [4]: 29.4 nM
COc1cc2c(cc1OC)CN(CCc1ccc(NC(=O)c3ccccc3/N=N/c3ccccc3)cc1)CC2	Non-toxic	–
COc1cc2c(cc1OC)CN(CCc1ccc(/N=N/c3ccccc3NC(=O)c3ccc(C)c(C)c3)cc1)CC2	Non-toxic	–
COc1cc2c(cc1OC)CN(CCc1ccc(/N=N/c3ccccc3NC(=O)c3ccc(C(C)(C)C)cc3)cc1)CC2	Non-toxic	–
COc1cc2c(cc1OC)CN(CCc1ccc(/N=N/c3ccccc3NC(=O)c3cccc(Cl)c3)cc1)CC2	Non-toxic	–
COc1cc2c(cc1OC)CN(CCc1ccc(/N=N/c3ccccc3NC(=O)c3ccc([N+](=O)[O-])cc3)cc1)CC2	Non-toxic	–
